Values belong to the compound of their own block, whether it stands above or below them.
Experiments:
[1] = target: T1, Bcl-2-like protein 1 (Homo sapiens, UniProt Q07817); experiment: Inhibition of FITC-BID BH3 peptide binding to recombinant GST-tagged C-terminal truncated Bcl-xL (unknown origin) expressed in Escherichia coli BL21 (DE3) after 5 mins by fluorescence polarization assay
[2] = target: T2, Induced myeloid leukemia cell differentiation protein Mcl-1 (Homo sapiens, UniProt Q07820); experiment: Inhibition of FITC-BID BH3 peptide binding to recombinant GST-tagged N-terminal/C-terminal truncated Mcl-1 (unknown origin) expressed in Escherichia coli BL21 (DE3) after 5 mins by fluorescence polarization assay
T2 sequence (Q07820 whole entry, the tested form may be a part): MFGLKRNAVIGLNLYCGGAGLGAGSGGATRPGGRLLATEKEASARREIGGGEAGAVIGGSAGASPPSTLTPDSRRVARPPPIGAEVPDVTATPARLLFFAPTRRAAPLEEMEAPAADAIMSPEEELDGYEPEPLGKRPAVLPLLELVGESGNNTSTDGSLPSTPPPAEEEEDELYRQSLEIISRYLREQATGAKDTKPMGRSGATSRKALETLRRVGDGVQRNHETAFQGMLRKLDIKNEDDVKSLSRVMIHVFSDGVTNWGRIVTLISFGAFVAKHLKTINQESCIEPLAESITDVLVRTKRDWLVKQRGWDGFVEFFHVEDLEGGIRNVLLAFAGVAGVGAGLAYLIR

[3] = target: T3, Bcl-2-related protein A1 (Homo sapiens, UniProt Q16548); experiment: Binding affinity to Bcl2A1 (unknown origin)
T3 sequence (Q16548 whole entry): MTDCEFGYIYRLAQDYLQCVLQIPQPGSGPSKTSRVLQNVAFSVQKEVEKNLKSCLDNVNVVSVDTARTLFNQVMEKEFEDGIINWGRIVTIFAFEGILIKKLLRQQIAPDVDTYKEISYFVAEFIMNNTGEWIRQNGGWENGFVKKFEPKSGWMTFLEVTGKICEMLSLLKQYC

[4] = target: T2, Induced myeloid leukemia cell differentiation protein Mcl-1; experiment: Inhibition of FITC-labeled Bim BH3 binding to GST-tagged Mcl-1 (unknown origin) preincubated for 2 mins followed by FITC-Bim-BH3 addition measured after 10 mins by fluorescence polarization assay
[5] = target: T2, Induced myeloid leukemia cell differentiation protein Mcl-1; experiment: Binding affinity to Mcl-1 (unknown origin) by TR-FRET assay
[6] = target: T1, Bcl-2-like protein 1; experiment: Inhibition of Bak BH3 peptide binding to GST-tagged human Bcl-xL after 3 hrs by Western blotting-based GST pull-down assay
[7] = target: T2, Induced myeloid leukemia cell differentiation protein Mcl-1; experiment: Inhibition of Bim BH3 peptide binding to GST-tagged human Mcl-1 after 3 hrs by Western blotting-based GST pull-down assay
[8] = species on record: Homo sapiens; experiment: Selectivity ratio of compound effect for Bcl-2 (unknown origin) to compound effect for Mcl-1 (unknown origin)
[9] = target: T1, Bcl-2-like protein 1; experiment: Inhibition of Bcl-xL (unknown origin) by fluorescence polarization assay
[10] = species on record: Homo sapiens; experiment: Selectivity ratio of compound effect for Bcl-xL (unknown origin) to compound effect for Mcl-1 (unknown origin)
[11] = target: T4, Apoptosis regulator Bcl-2 (Homo sapiens, UniProt P10415); experiment: Inhibition of Bcl-2 (unknown origin) by fluorescence polarization assay
T4 sequence (P10415 whole entry): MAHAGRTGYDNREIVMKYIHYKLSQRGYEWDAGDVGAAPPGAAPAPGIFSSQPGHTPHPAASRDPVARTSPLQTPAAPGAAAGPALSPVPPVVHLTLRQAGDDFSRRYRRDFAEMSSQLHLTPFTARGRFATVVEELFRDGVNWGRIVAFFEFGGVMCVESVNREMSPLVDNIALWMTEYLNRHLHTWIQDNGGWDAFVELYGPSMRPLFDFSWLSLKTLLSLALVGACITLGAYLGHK

[12] = target: T2, Induced myeloid leukemia cell differentiation protein Mcl-1; experiment: Inhibition of FAM-Bid binding to Mcl-1 (unknown origin) after 30 mins by fluorescence polarization assay
[13] = target: T4, Apoptosis regulator Bcl-2; experiment: Inhibition of FAM-Bid binding to Bcl-2 (unknown origin) after 30 mins by fluorescence polarization assay
[14] = target: T2, Induced myeloid leukemia cell differentiation protein Mcl-1; experiment: Inhibition of FITC-labeled Bak-BH3 peptide binding to Mcl-1 (unknown origin) by fluorescence polarization assay
[15] = target: T1, Bcl-2-like protein 1; experiment: Inhibition of FITC-labeled Bak-BH3 peptide binding to Bcl-xL (unknown origin) by fluorescence polarization assay
[16] = Selectivity ratio of IC50 for human Bcl-2 to IC50 for mouse Mcl-1

T1 sequence (Q07817 whole entry, the tested form may be a part): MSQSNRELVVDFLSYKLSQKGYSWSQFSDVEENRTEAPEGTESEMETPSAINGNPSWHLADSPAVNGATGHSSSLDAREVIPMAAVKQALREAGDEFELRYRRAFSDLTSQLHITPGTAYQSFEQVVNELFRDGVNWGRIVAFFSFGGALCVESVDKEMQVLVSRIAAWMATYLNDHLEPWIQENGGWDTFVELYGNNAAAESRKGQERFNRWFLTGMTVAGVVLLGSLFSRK

- IC50 [1]: > 50000 nM
- IC50 [2]: 4800 nM
SMILES: Cc1cs/c(=N\C2CCCCC2)n1/N=C/c1cc(O)c(O)c(O)c1

- Ki [3]: > 20000 nM
SMILES: CN(C)CC[C@H](CSc1ccccc1)Nc1ccc(S(=O)(=O)NC(=O)c2ccc(N3CCN(Cc4ccccc4-c4ccc(Cl)cc4)CC3)cc2)cc1[N+](=O)[O-] [ABT 737]

- IC50 [4]: 25 nM
SMILES: CC1=C(C2=C(C)C(=O)c3c(cc(O)c(O)c3Cc3ccccc3)C2=O)C(=O)c2cc(O)c(O)c(Cc3ccccc3)c2C1=O

- Ki [5]: > 444 nM
SMILES: CC1(C)CCC(CN2CCN(c3ccc(C(=O)NS(=O)(=O)c4ccc(NCC5CCOCC5)c([N+](=O)[O-])c4)c(Oc4cnc5[nH]ccc5c4)c3)CC2)=C(c2ccc(Cl)cc2)C1 [VENETOCLAX]

- IC50 [6]: 1500 nM
- IC50 [7]: 4900 nM
SMILES: CC(C)Cc1cc(-c2ccc(-c3ccc(CCC(=O)O)cc3CC(C)C)cc2Cc2ccccc2)ccc1OCC(=O)O

- Selectivity ratio [8]: > 1000
- Ki [9]: < 1 nM
- Selectivity ratio [10]: > 1000
- Ki [11]: < 1 nM
SMILES: Cc1c(S(C)(=O)=O)c(-c2cc(F)cc(N3CCN(c4ccc(NS(=O)(=O)c5ccc(N[C@H](CCN6CCC(O)CC6)CSc6ccccc6)c(S(=O)(=O)C(F)(F)F)c5)cc4)CC3)c2)c(-c2ccc(Cl)cc2)n1C(C)C

- Kd [12]: 58 nM
- Kd [13]: 310 nM
SMILES: N#CC1=C2C(=NC1=O)c1cccc3c(N4CCSCC4)ccc2c13

- IC50 [14]: 10000 nM
- IC50 [15]: 394 nM
SMILES: CC(C)Oc1cc(C(=O)Nc2ccc(C(=O)Nc3ccc(C(=O)O)cc3OC(C)C)nc2OC(C)C)ccc1N

SMILES: O=C(c1ccccc1O)c1[nH]c(Cl)c(Cl)c1-n1c(C(=O)c2ccccc2O)cc(Cl)c1Cl
- Ratio IC50 [16]: > 8

Reference: ChEMBL document CHEMBL4052581, “Expanding the Cancer Arsenal with Targeted Therapies: Disarmament of the Antiapoptotic Bcl-2 Proteins by Small Molecules” (J Med Chem, 2017)
